Legend:
Assay type in all cases: functional, cell-based
A549 = assay: Cytotoxicity against human A549 cells by MTT assay
SK-BR-3 = assay: Cytotoxicity against human SKBR3 cells by MTT assay
PANC-1 = assay: Cytotoxicity against human PANC1 cells by MTT assay
SMMC-7721 = assay: Cytotoxicity against human SMMC7721 cells by MTT assay
HL-60 = assay: Cytotoxicity against human HL60 cells by MTT assay

Measured: IC50

CC1=C2C3=C4[C@](C)([C@@H]5C[C@@H]5[C@@]4(O)C[C@@H]4[C@]35OC(=O)C3=C5C[C@H]5[C@](O)(COC(=O)/C(C)=C/COC(=O)CCC(=O)OC3)[C@H]3C[C@H]3[C@]45C)[C@@H](O)[C@@]2(O)OC1=O [CHLORAMULTILIDE C]
> 10 µM: A549 | SK-BR-3 | PANC-1 | SMMC-7721 | HL-60

C/C=C(\C)C(=O)OC[C@]1(O)[C@H]2C[C@H]2[C@]2(C)[C@@H]3C[C@@]4(O)C5=C(C6=C(C)C(=O)O[C@]6(O)[C@H](O)[C@@]5(C)[C@@H]5C[C@@H]54)[C@@]34OC(=O)C(CO)=C4C[C@@H]12 [CHLORAMULTILIDE D]
> 10 µM: A549 | SK-BR-3 | PANC-1 | SMMC-7721 | HL-60

COC(=O)/C(C)=C1\C(=O)[C@H](O)[C@]2(C)C3=C([C@H]4C[C@H]42)[C@H](O)[C@@H]2[C@]4(OC(=O)C5=C4C[C@H]4[C@](O)(COC(=O)/C(C)=C/COC(=O)CCC(=O)OC5)[C@H]5C[C@H]5[C@]24C)[C@H]31 [CHLORAMULTIOL A]
> 10 µM: A549 | SK-BR-3 | PANC-1 | SMMC-7721 | HL-60

CC1=C2C3=C4[C@](C)([C@@H]5C[C@@H]5[C@@]4(O)C[C@@H]4[C@]35OC(=O)C(CO)=C5C[C@H]3[C@](O)(CO)[C@H]5C[C@H]5[C@]43C)[C@@H](O)[C@@]2(O)OC1=O [CHLORAMULTIOL B]
> 10 µM: A549 | SK-BR-3 | PANC-1 | SMMC-7721 | HL-60

C/C=C(\C)C(=O)OC[C@]1(O)[C@H]2C[C@H]2[C@]2(C)[C@@H]3C[C@@]4(O)C5=C(C6=C(C)C(=O)O[C@]6(OC)[C@H](O)[C@@]5(C)[C@@H]5C[C@@H]54)[C@@]34OC(=O)C(CO)=C4C[C@@H]12 [CHLORAMULTIOL C]
> 10 µM: A549 | SK-BR-3 | PANC-1 | SMMC-7721 | HL-60

C/C=C(\C)C(=O)OC[C@]1(O)[C@H]2C[C@H]2[C@]2(C)[C@@H]3C[C@@]4(O)C5=C(C6=C(C)C(=O)O[C@]6(O)C(=O)[C@@]5(C)[C@@H]5C[C@@H]54)[C@@]34OC(=O)C(CO)=C4C[C@@H]12 [CHLORAMULTIOL D]
> 10 µM: A549 | SK-BR-3 | PANC-1 | SMMC-7721 | HL-60

CC(=O)OC[C@@H]1[C@H]2C[C@H]2[C@]2(C)[C@@H]3C[C@@]4(O)C5=C(C6=C(C)C(=O)O[C@]6(O)[C@H](O)[C@@]5(C)[C@@H]5C[C@@H]54)[C@@]34OC(=O)C(CO)=C4C[C@@H]12 [CHLORAMULTIOL E]
> 10 µM: A549 | SK-BR-3 | PANC-1 | SMMC-7721 | HL-60

CO[C@]12OC(=O)C(C)=C1C1=C3C(=C[C@@H]4[C@]15OC(=O)C1=C5C[C@H]5[C@](O)(COC(=O)/C(C)=C/COC(=O)CCC(=O)OC1)[C@H]1C[C@H]1[C@]45C)[C@H]1C[C@H]1[C@]3(C)[C@H]2O [CHLORAMULTIOL F]
> 10 µM: A549 | SK-BR-3 | PANC-1 | SMMC-7721 | HL-60

COC(=O)[C@]1(C)CC2=C3C=C(C(=O)[C@H](O)[C@@]3(C)[C@@H]3C[C@H]23)[C@](C)(C(=O)OC)CC2=C3C=C1C(=O)[C@H](O)[C@@]3(C)[C@@H]1C[C@H]21 [Cycloshizukaol A]
> 10 µM: A549 | SK-BR-3 | PANC-1 | SMMC-7721 | HL-60

C/C=C(\C)C(=O)OCC1=C2C[C@H]3[C@H](O)[C@H]4C[C@H]4[C@]3(C)[C@@H]3C[C@@]4(O)C5=C(/C(=C(/C)C(=O)OC)C(=O)[C@H](O)[C@@]5(C)[C@@H]5C[C@@H]54)[C@]23OC1=O [SHIZUKAOL C]
> 10 µM: A549 | SK-BR-3 | PANC-1 | SMMC-7721 | HL-60

COC(=O)/C(C)=C1/C(=O)[C@H](O)[C@]2(C)C3=C1[C@]14OC(=O)C(COC(C)=O)=C1C[C@H]1C[C@H]5C[C@H]5[C@]1(C)[C@@H]4C[C@]3(O)[C@H]1C[C@H]12 [SHIZUKAOL D]
> 10 µM: A549 | SK-BR-3 | PANC-1 | SMMC-7721 | HL-60

CC1=C2C3=C4[C@@](C)(C(=O)[C@@]2(O)OC1=O)[C@@H]1C[C@@H]1[C@@]4(O)C[C@@H]1[C@]32OC(=O)C3=C2C[C@H]2[C@](O)(COC(=O)/C(C)=C/COC(=O)CCC(=O)OC3)[C@H]3C[C@H]3[C@]12C [SPICACHLORANTIN B]
> 10 µM: A549 | SK-BR-3 | PANC-1 | SMMC-7721 | HL-60
